Experimental findings from patent US20160287553A1, “TRANSLATION INHIBITORS IN HIGH-DOSE CHEMO- AND/OR HIGH-DOSE RADIOTHERAPY” (DEUTSCHES KREBSFORSCHUNGSZENTRUM, priority 2013, published 2016) are described below.

“Also recorded” adds a separate entry of the source.

In assay [1] the test system is Splenocytes from p53-/- mice. Nature of the assay: Etoposide-induced cell death in p53 knock-out splenocytes. It counts as cell-based, mouse. Particulars: p53-KO splenocytes, 50 μM Etoposide, 75 nM Roc-A (FIG. 4b). How it is done:
(§1) DNA fragmentation was determined by FACS.
P53^−/− C57B1/6 mice (B6.Trp53tm1Tyj) were kindly provided by Liu H-K (German Cancer Research Center, Heidelberg, Germany). Spleens of 8-12 week old p53^−/−, and p53^+/+ mice were isolated in parallel, minced and incubated for 30 min in RPMI-1640 medium supplemented with DNase I (50 U/ml) and Collagenase IV (1 mg/ml) at 37° C. and 5% CO2. Splenocytes were filtered by […] cell strainer, washed twice with ice-cold wash buffer (PBS, 0.5% FCS, 2 mM EDTA) and resuspended in Oxford medium (RPMI 1640, 10% FCS, 100 μg/ml Penicillin, 100 μg/ml Streptamycin, 10 mM Hepes, 50 μM β-Mercaptoethanol, 2 mM L-glutamine, 1 mM sodium pyruvate, 100 μM non-essential amino acids) at a concentration of 2×10^6 cells/ml.
To further investigate the role of p53 in Roc-A-mediated protection of T cells against DNA damage-induced apoptosis, we performed a p53 knock-down experiment using a siRNA approach (FIG. 4a, upper panel). […] Therefore, we examined the effect of Roc-A on p53 knock-out (KO) cells.

Assay [2] concerns HL-60 (promyelocytic leukemia), p53-deficient. Nature of the assay: Etoposide-induced cell death in HL-60. It counts as cell-based, human. Particulars: HL-60 (FIG. 5a). How it is done:
as §1
(§2) Since Roc-A-mediated protection of non-malignant cells from DNA-damage-induced cell death is largely p53-dependent, we predicted that Roc-A would not protect cancer cells which have non-functional p53. […] 1997; 19: 243-253), Reh (Zhou et al, loc cit.), SKW6.4 (Barbarotto et al., J Cell Biochem. 2008; 104: 595-605) and NCI-H209 (Fujita et al. Int J Oncol. 1999; 15: 927-934) which have a WT p53 protein.

Assay [3] concerns p53. Nature of the assay: p53 protein expression by immunoblot. It counts as cell-based, human. As for the experimental part: Immunoblot analysis was carried out as previously described (Polier et al., Chem Biol. 2012; 19: 1093-1104). Briefly, 4-20×10^6 cells were treated with different reagents as indicated and lysed in RIPA buffer (50 mM Tris HCl, 137 mM NaCl, 0.5% Na Deoxycholate, 1% Triton X-100, 0.1% SDS, protease inhibitors). Proteins were separated by SDS-PAGE and transferred to a nitrocellulose membrane (Amersham Biosciences, Little Chalfon, UK) using a semi-dry blotting approach. The following antibodies were used: p53 (DO-1) antibody was purchased from Santa Cruz Biotechnology (Heidelberg, Germany). Tubulin and actin (A5441) antibodies were purchased from Sigma-Aldrich (St. Louis, USA).
The transcription factor p53 is a major regulator of DNA damage-induced apoptosis (Lowe et al., Cell. 1993; 74: 957-967). Therefore, we investigated the effect of Roc-A on the expression level of p53.
p53 protein expression can be regulated at the level of transcription, translation, and ubiquitination-mediated degradation (Marine & Lozano, Cell Death Differ. 2010; 17: 93-102). It has been shown that upon DNA damage p53 undergoes post-translational modifications leading to its deubiquitination and, thus, stabilization (Lee & Gu, Cell Death Differ. 2010; 17: 86-92). To investigate whether Roc-A could decrease p53 stability, we treated T cells with the proteasome inhibitor Bortezomib to block proteasome-mediated degradation.
(In general: In western blotting, separated proteins are transferred to a membrane and probed.)

Assay [4] deals with IM-9 (Chronic myeloid leukemia), WT p53. The experiment in a line: Etoposide-induced cell death in IM-9. It counts as cell-based, human. As to conditions: IM-9 (FIG. 5b). How it is done:
as §1, §2

The test system of assay [5] is protein synthesis in T cells. Nature of the assay: Translation assay: [35S]methionine incorporation in T cells. The class given is cell-based, human. Particulars: T cells (FIG. 6b). As for the experimental part: The relative amount of protein synthesis was determined by measuring the amount of incorporation of ^35S-methionine into the protein. Briefly, cells were pre-cultured in methionine-free medium (supplemented with 10% dialyzed FCS) for 3 h, followed by incubation with 3.5 μCi of ^35S-methionine-labeling mix (PerkinElmer, Waltham, Mass., USA) per 8×10^5 cells for 6 h as indicated. After the treatment, cells were washed twice with ice-cold PBS and lysed in RIPA buffer. 50 μl of each lysate were added to 1 ml of Liquid Scintillation Cocktail solution (Beckman Coulter, Brea, Calif., USA) and the amount of incorporated radioactivity was determined by liquid scintillation counting.
Roc-A has been well documented to inhibit protein translation (Polier et al., Chem Biol. 2012; 19: 1093-1104; Sadlish et al., ACS Chem Biol. 2013; doi:10.1021/cb400158t; Bleumink et al., Cell Death Differ. 2011; 18: 362-370; Cencic et al., PloS one. 2009; 4: e5223). Thus, we expected that Roc-A-mediated suppression of genotoxin-induced p53 upregulation may be regulated by inhibition of p53 protein synthesis.

Assay [6] relates to SKW6.4 (B cell leukemia), WT p53. Nature of the assay: Etoposide-induced cell death in SKW6.4. As to conditions: SKW6.4 (FIG. 5b). The class given is cell-based, human. How it is done:
as §1, §2

Assay [7] has as its system SCLC-21H cells (small cell lung cancer), p53 mutated. Nature of the assay: Etoposide-induced cell death in SCLC-21H. As to conditions: SCLC-21H (FIG. 5a). It counts as cell-based, human. As for the experimental part: as §1, §2
The subject of assay [8] is cardiomyocytes. The experiment in a line: Etoposide-induced apoptosis in cardiomyocytes. It counts as cell-based, human. Particulars: cardiomyocytes (FIG. 1c). As for the experimental part: as §1
Next, we asked whether Roc-A could also protect other normal primary cells from DNA damage-induced toxicity. To address this question, we examined the protective effect of Roc-A on Etoposide-treated human peripheral blood B cells, NK cells, neutrophils, cardiomyocytes and murine hematopoietic stem and progenitor cells (HSPCs).

The subject of assay [9] is Primary human T cells. Nature of the assay: Ionizing radiation (IR)-induced apoptosis in T cells. It counts as cell-based. As for the experimental part:
as §1
The radioprotective effect mediated by Roc-A was the highest when cells were treated with Roc-A 1 h before radiation of cells (FIG. 1d). However, when cells were treated 4 h after radiation, the radioprotective effect was still higher than 50% (FIG. 1d).

The test system of assay [10] is EU-3 (acute lymphoblastic leukemia), WT p53. The experiment in a line: Etoposide-induced cell death in EU-3. The class given is cell-based, human. Particulars: EU-3 (FIG. 5b). How it is done: as §1, §2

As for `COc1ccc([C@@]23Oc4cc(OC)cc(OC)c4[C@]2(O)[C@H](O)[C@H](C(=O)N(C)C)[C@H]3c2ccccc2)cc1` [Roc-A, (1R,2R,3S,3aR,8bS)-1,8b-dihydroxy-6,8-dimethoxy-3a-(4-methoxyphenyl)-N,N-dimethyl-3-phenyl-2,3-dihydro-1H-cyclopenta[b][1]benzofuran-2-carboxamide], the “Protection against Etoposide-induced cell death” value in assay [1] is listed as “abolished; also recorded: not statistically significant”; in assay [2], “did neither protect”; in assay [4], “protected by Roc-A from Etoposide-induced cell death but to a lesser extent than non-malignant cells”; in [6] it was “protected by Roc-A from Etoposide-induced cell death but to a lesser extent than non-malignant cells”; in assay [7], “did neither protect”; in assay [10], “protected by Roc-A from Etoposide-induced cell death but to a lesser extent than non-malignant cells”. Moreover, the “Etoposide-induced p53 increase” value in [3] (B cells (FIG. 3d)) and in [3] (NK cells (FIG. 3e)) was “inhibits Etoposide-induced p53 upregulation; also recorded: suppressed” throughout. In [3] (T cells (FIG. 3b, f)), the “p53 upregulation by IR, Bleomycin, Teniposide, Doxorubicin” value is “inhibits Etoposide-(a), Bleomycin-, Teniposide- and Doxorubicin-(b) induced p53 upregulation in T cells; also recorded: inhibition was also observed”. In addition, the “Upregulation of p53, kinetic analysis” value in [3] (T cells, 50 μM Etoposide, 75 nM Roc-A (FIG. 3c)) is reported as “could inhibit upregulation of p53 at all time-points analyzed”. For the same molecule, the “Etoposide-induced p53 protein expression” value in assay [3] (T cells, increasing Etoposide, different concentrations of Roc-A (FIG. 3a)) was “inhibits Etoposide-(a), Bleomycin-, Teniposide- and Doxorubicin-(b) induced p53 upregulation in T cells; also recorded: p53 expression was blocked in a dose-dependent manner”. The “Inhibition of [35S]methionine incorporation (protein translation)” value in assay [5] is “inhibited [^35S]methionine incorporation at different degrees”. The “Protection against Etoposide-induced apoptosis” value in assay [8] is given as “protected”. Also, in [9] (Roc-A 1 h before radiation (10 Gy) (FIG. 1d)), the “Radioprotective effect by time of Roc-A addition” value is given as “highest”. In addition, the “Radioprotective effect (percent of protection from IR-induced apoptosis)” value in assay [9] (Roc-A 4 h after radiation (10 Gy) (FIG. 1d)) was “higher than 50%”. The “Ionizing radiation-induced apoptosis in T cells” value in assay [9] (increasing doses of IR, different concentrations of Roc-A, 24 h (FIG. 1e)) is “reduced ionizing radiation-induced apoptosis in T cells”.
